# Measurements from the supplement of paper PMC10307832.
# Tests used:
# Assay in all cases: relative viability (nuclei count vs DMSO), 5 days (fraction); higher = more cells survive
# VX-11e + Navitoclax = compound: CC1=CN=C(N=C1C2=CNC(=C2)C(=O)N[C@H](CO)C3=CC(=CC=C3)Cl)NC4=C(C=C(C=C4)F)Cl [VX-11e] + CC1(C)CCC(c2ccc(Cl)cc2)=C(CN2CCN(c3ccc(C(=O)NS(=O)(=O)c4ccc(N[C@H](CCN5CCOCC5)CSc5ccccc5)c(S(=O)(=O)C(F)(F)F)c4)cc3)CC2)C1 [Navitoclax] (partner 0.5 µM)
# How it was run: (§1)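 The day after seeding in 1536-well plates, lung cancer cell lines were treated by pin tool with a single drug, or with a fixed anchor-drug dose together with five library-drug doses (not always all listed) in √10 steps. After 5 days, a combined fix-and-stain solution (final 0.05% Triton X-100, 1% formaldehyde, 1 ug/ml Hoechst) was added. Nuclei counted on 4× images gave relative viability as treated counts over vehicle counts, reported as the median of duplicate plates.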
# VX-11e + Vorinostat = compound: CC1=CN=C(N=C1C2=CNC(=C2)C(=O)N[C@H](CO)C3=CC(=CC=C3)Cl)NC4=C(C=C(C=C4)F)Cl [VX-11e] + O=C(CCCCCCC(=O)Nc1ccccc1)NO [Vorinostat] (partner 1 µM)
# How it was run: as §1
# VX-11e + Crizotinib = compound: CC1=CN=C(N=C1C2=CNC(=C2)C(=O)N[C@H](CO)C3=CC(=CC=C3)Cl)NC4=C(C=C(C=C4)F)Cl [VX-11e] + C[C@@H](Oc1cc(-c2cnn(C3CCNCC3)c2)cnc1N)c1c(Cl)ccc(F)c1Cl [Crizotinib] (partner 1 µM)
# How it was run: as §1
# VX-11e + Tozasertib = compound: CC1=CN=C(N=C1C2=CNC(=C2)C(=O)N[C@H](CO)C3=CC(=CC=C3)Cl)NC4=C(C=C(C=C4)F)Cl [VX-11e] + Cc1cc(Nc2cc(N3CCN(C)CC3)nc(Sc3ccc(NC(=O)C4CC4)cc3)n2)n[nH]1 [Tozasertib] (partner 0.1 µM)
# How it was run: as §1
Cell Line,relative viability (VX-11e + Navitoclax; first compound 0.04 µM),relative viability (VX-11e + Navitoclax; first compound 0.1265 µM),relative viability (VX-11e + Navitoclax; first compound 0.4 µM),relative viability (VX-11e + Navitoclax; first compound 1.265 µM),relative viability (VX-11e + Navitoclax; first compound 4 µM),relative viability (VX-11e + Vorinostat; first compound 0.04 µM),relative viability (VX-11e + Vorinostat; first compound 0.1265 µM),relative viability (VX-11e + Vorinostat; first compound 0.4 µM),relative viability (VX-11e + Vorinostat; first compound 1.265 µM),relative viability (VX-11e + Vorinostat; first compound 4 µM),relative viability (VX-11e + Crizotinib; first compound 0.04 µM),relative viability (VX-11e + Crizotinib; first compound 0.1265 µM),relative viability (VX-11e + Crizotinib; first compound 0.4 µM),relative viability (VX-11e + Crizotinib; first compound 1.265 µM),relative viability (VX-11e + Crizotinib; first compound 4 µM),relative viability (VX-11e + Tozasertib; first compound 0.04 µM),relative viability (VX-11e + Tozasertib; first compound 0.1265 µM),relative viability (VX-11e + Tozasertib; first compound 0.4 µM),relative viability (VX-11e + Tozasertib; first compound 1.265 µM),relative viability (VX-11e + Tozasertib; first compound 4 µM)
COR-L23,1.25,1.13,0.924,0.681,0.305,0.31,0.436,0.592,0.41,0.262,0.708,0.627,0.646,0.497,0.211,0.157,0.142,0.138,0.124,0.127
NCI-H1395,1.16,0.999,0.832,1.06,0.659,0.573,0.683,,0.661,0.479,,,,,,0.75,0.688,0.689,0.781,0.547
RERF-LC-KJ,0.849,1.1,0.977,0.946,0.619,0.7,0.653,0.586,0.594,0.623,0.899,0.834,0.881,0.863,0.753,0.529,0.452,0.564,0.457,0.29
NCI-H1993,,1.03,,0.804,0.612,,0.819,0.505,0.47,0.623,,0.804,,0.752,0.647,0.626,0.603,0.639,0.562,0.514
NCI-H2087,0.983,1,0.999,0.8,0.257,0.944,0.644,,0.495,0.239,1.03,0.809,0.944,1.07,0.502,0.28,0.208,,0.203,0.167
NCI-H520,0.963,1.04,1,1.38,0.992,0.646,0.875,0.682,0.698,0.518,0.773,0.748,0.741,0.914,0.59,0.464,0.401,0.397,0.468,0.4
NCI-H1648,,,,,,,0.317,0.639,0.31,0.291,,,,,,0.515,0.378,0.566,0.292,0.318
NCI-H23,1,0.859,0.467,0.459,0.243,0.562,0.581,0.174,0.148,0.182,0.422,0.504,0.416,0.347,0.32,0.321,0.322,,0.216,0.168
LXF-289,0.99,0.914,0.965,0.895,0.607,0.851,0.726,,0.668,0.543,0.902,0.788,0.87,0.706,0.543,0.223,0.177,0.222,0.189,0.141
HCC-44,0.92,0.883,1.22,1,0.732,1.15,1.15,1.12,1.03,0.831,0.879,0.809,0.833,0.753,0.453,0.975,0.863,0.182,0.396,0.549
EMC-BAC-2,1.22,1.11,0.994,0.927,0.833,0.404,0.45,1.07,0.511,0.315,0.808,0.708,0.739,0.618,0.671,0.313,0.272,0.373,0.382,0.353
NCI-H522,,,,,,0.994,0.939,0.736,0.713,0.751,,,,,,0.532,0.56,0.553,0.467,0.503
NCI-H1792,0.614,0.639,0.672,0.646,0.588,,,,,,0.956,0.954,0.915,0.982,0.52,,,,,
NCI-H838,1.17,1.1,1.05,1.1,0.861,0.774,0.669,0.681,0.639,0.591,0.888,0.82,0.798,0.881,0.501,0.233,0.279,0.263,0.213,0.193
LCLC-103H,,,,,,0.807,0.68,0.673,0.46,0.66,1.01,1.09,0.968,0.882,0.852,0.467,0.412,0.48,0.3,0.4
NCI-H2170,0.576,0.528,0.496,0.583,0.404,0.835,0.75,0.462,0.67,0.778,1.18,1.04,1.23,1.03,1.1,0.81,0.687,0.734,0.69,0.686
HOP-62,0.992,0.891,1.02,0.46,0.582,0.519,0.59,0.345,0.201,0.158,0.887,0.863,0.978,0.76,0.428,0.344,0.368,0.402,0.321,0.24

Cell Line,relative viability (VX-11e + Navitoclax; first compound 0.04 µM),relative viability (VX-11e + Navitoclax; first compound 0.1265 µM),relative viability (VX-11e + Navitoclax; first compound 0.4 µM),relative viability (VX-11e + Navitoclax; first compound 1.265 µM),relative viability (VX-11e + Navitoclax; first compound 4 µM),relative viability (VX-11e + Vorinostat; first compound 0.04 µM),relative viability (VX-11e + Vorinostat; first compound 0.1265 µM),relative viability (VX-11e + Vorinostat; first compound 0.4 µM),relative viability (VX-11e + Vorinostat; first compound 1.265 µM),relative viability (VX-11e + Vorinostat; first compound 4 µM),relative viability (VX-11e + Crizotinib; first compound 0.04 µM),relative viability (VX-11e + Crizotinib; first compound 0.1265 µM),relative viability (VX-11e + Crizotinib; first compound 0.4 µM),relative viability (VX-11e + Crizotinib; first compound 1.265 µM),relative viability (VX-11e + Crizotinib; first compound 4 µM),relative viability (VX-11e + Tozasertib; first compound 0.04 µM),relative viability (VX-11e + Tozasertib; first compound 0.1265 µM),relative viability (VX-11e + Tozasertib; first compound 0.4 µM),relative viability (VX-11e + Tozasertib; first compound 1.265 µM),relative viability (VX-11e + Tozasertib; first compound 4 µM)
HCC-827,1.07,1.02,0.992,1.24,0.919,0.924,0.846,1.03,0.918,0.761,1.01,0.953,0.888,0.958,0.839,0.396,0.401,0.421,0.401,0.347
NCI-H2228,0.902,0.73,1.08,0.477,0.162,0.646,0.66,0.617,0.58,0.399,0.533,0.524,0.463,0.263,0.303,0.248,0.202,,0.149,0.115
SW 1573,1.12,0.959,0.945,0.672,0.553,,0.956,0.408,0.432,0.466,0.871,0.789,0.743,0.793,0.451,0.237,0.21,0.224,0.154,0.11
NCI-H2342,,,,,,,0.79,0.862,0.843,0.73,,,,,,0.422,0.503,0.498,0.406,0.416
A-427,0.999,0.88,0.796,0.585,0.268,0.868,0.928,1.01,0.89,0.504,0.92,0.721,0.55,0.688,0.311,0.181,0.18,0.132,0.143,0.16
HARA,1.16,1.1,1.13,1.13,0.968,0.618,0.455,0.535,0.392,0.257,1.05,0.792,1.04,0.833,0.813,0.106,0.118,0.119,0.0971,0.0712
ABC-1,,,,,,0.934,,1.22,0.986,1.15,1.24,1.07,1.06,0.892,1.09,0.137,0.219,0.175,0.123,0.188
Calu-6,0.994,0.786,0.737,0.219,0.109,,,,,,0.829,0.839,0.861,0.396,0.145,,,,,
NCI-H1563,,,,,,,,,,,0.861,0.799,0.969,0.91,0.642,,,,,
EBC-1,0.362,0.474,0.325,0.271,0.168,,,,,,0.204,0.182,0.163,0.198,0.18,,,,,
NCI-H1793,,0.526,,0.382,0.152,,0.618,,0.569,0.257,,,,,,0.345,0.293,,0.228,0.133
NCI-H650,,,,,,0.33,0.435,0.63,0.608,0.533,,0.538,0.711,,0.478,0.828,0.648,0.683,0.509,0.511
A549,1.22,1.11,0.984,0.257,0.111,,,,,,0.826,0.786,0.601,0.207,0.0915,,,,,
SW 900,,,,,,0.348,0.507,,0.276,0.323,,,,,,0.737,0.401,0.409,0.307,0.258
NCI-H661,,,,,,0.784,0.798,0.718,0.794,0.747,,0.974,1,1.16,0.934,0.323,0.354,0.349,0.382,0.379
NCI-H358,,,,,,0.725,0.63,0.513,0.54,0.135,0.692,0.509,,0.523,0.225,0.113,0.0919,0.102,0.096,0.0812
NCI-H1299,1.02,1.01,1.02,0.976,0.692,,,,,,0.994,0.879,0.956,0.84,0.47,,,,,
